1 molecule from patent US20210386668A1, “Cyclodextrin for use in the treatment and prevention of late phase bronchoconstriction in allergen-induced asthma” (Universite de Liege, priority 2020, published 2021) can be followed below.

The data set has as its system healthy subjects. The data set is described as follows: Phase 1 clinical trial, single and multiple HPBCD inhalation. It counts as in vivo, human. The source says: Clinical trial protocols have been approved by an independent ethical committee (CHU Liege—University of Liege) in accordance with GCPs, Declaration of Helsinki and European regulations (EudraCT). All participants gave written informed consent before any study-specific procedure. For the phase 1 clinical trial, 8 healthy subjects (4 women and 4 men) from 18 to 40 years were recruited and enrolled in the study at the University Hospital of Liege (Belgium). Patients were randomized and received first the placebo (NaCl 0.9%) or HPBCD at 2.5 mM and 8 days after, the opposite treatment. After 1 week, all patients received HPBCD at 15 mM. One month later, all patients received HPBCD at 15 mM during 5 consecutive days. Apyrogenic and sterile HPBCD powder was diluted with NaCl 0.9% before inhalation (8 ml) with an ultrasonic nebulizer (Devilbiss 2000). General symptoms, asthma scores (ACQ), dyspnea, chest Rx, clinical biology, ECG, vital signs, spirometry, NO, sputum (induced by NaCl 4.5%) were analyzed after treatment periods. The second clinical trial (phase 2a-proof of concept) was a double-blinded, cross-over, placebo-controlled study. 17 mild to moderate asthmatic patients were included in the study at two different sites (University Hospital of Liege and University Hospital Erasme) in Belgium. Characterization visits consisted of dyspnea symptoms recording, ECG, chest Rx, clinical biology, spirometry and vital signs analysis. PD20 (provocative dose that causes a 20% fall in FEV1 from the saline alone value) to inhaled allergen was determined. […] The PD20 of the allergen was calculated from a cumulative dose-response curve, as described previously, Cataldo et al., Matrix metalloproteinase-9, but not tissue inhibitor of matrix metalloproteinase-1, increases in the sputum from allergic asthmatic patients after allergen challenge, Chest. 2002; 122(5):1553-9. All […] received a cumulative concentration of Dermatophagoides pteronyssinus with a reactivity index of 6. After 14 days wash-out period, patients were randomly divided into two groups and received either HPBCD 15 mM or Placebo (NaCl 0.9%) by inhalation (ultrasonic nebulizer (Devilbiss 2000)) twice daily. At the end of this treatment period, lung function (FEV1) was analyzed after allergen (HDM) challenge under the supervision of experienced respiratory clinical physiologists. FEV1 was measured after allergen inhalation challenge at 5, 15, 30, 60, 120, 180, 240, 300 and 360 min. After 28 days wash-out period, patients received the opposite treatment for another 14 days and the FEV1 following allergen challenge was evaluated. All clinical parameters were examined after each treatment period. The endpoint of this proof of concept study was changes in FEV1 over 0-360 min post-allergen challenges. FEV1 in early phase (0-60 min) and late phase (180-360 min) were expressed as: area under the FEV1-versus-time curve (AUC), maximum percentage fall and average percentage fall (calculated by dividing the area under the curve of the percentage fall in FEV1 by the duration of the response period). One patient who received placebo had negative maximum FEV1 decrease and negative average percentage fall in FEV1. These negative values were truncated to 0. Patients had access to […] (salbutamol 100 μg) throughout the study as an «as needed» treatment.
Data are presented as mean±SEM unless specified. The differences between mean values were estimated using a two-tailed Mann-Whitney test (animal and in vitro experiments) unless specified. All animal experiments were repeated at least 2 times; n 6 in each experimental group. ANOVA Friedman test (single dose) and Wilcoxon signed rank test (multiple doses) were used to analyze results obtained during the phase 1 clinical trial. One-tailed Wilcoxon matched pairs test was used to evaluate intra-individual differences in the proof of concept clinical trial. A P value less than 0.05 was considered significant. […]

[1] abbreviates: multiple dose HPBCD 15 mM, after 5 days inhalation.
The mark [2] stands for this setting: multiple dose HPBCD 15 mM, after 5 days inhalation, mean ± SD.
The mark [3] stands for this setting: single dose, HPBCD 2.5 mM, mean ± SD.
[4] abbreviates: single dose, HPBCD 15 mM, mean ± SD.

As to `CC(O)COC[C@H]1O[C@@H]2O[C@H]3[C@H](O)[C@@H](O)[C@@H](O[C@H]4[C@H](O)[C@@H](O)[C@@H](O[C@H]5[C@H](O)[C@@H](O)[C@@H](O[C@H]6[C@H](O)[C@@H](O)[C@@H](O[C@H]7[C@H](O)[C@@H](O)[C@@H](O[C@H]8[C@H](O)[C@@H](O)[C@@H](O[C@H]1[C@H](O)[C@H]2O)O[C@@H]8COCC(C)O)O[C@@H]7COCC(C)O)O[C@@H]6COCC(C)O)O[C@@H]5COCC(C)O)O[C@@H]4COCC(C)O)O[C@@H]3COCC(C)O` (stereo partly drawn) [HPBCD, 2-hydroxypropyl-beta-cyclodextrin], under setting [1], the “Eosinophils (sputum) 5 h after inhalation” value (“Eosinophils (sputum) 5 h” for short) is 0.00%, the QT turned out to be 393.50 ms and the QtTc is 393.30 ms. For the same molecule, under setting [2], the FEV1 15 min after inhalation came to 4.13 ± 0.87 L, the FEV1 1 h after inhalation is 4.07 ± 0.82 L, the FEV1 3 h after inhalation was 4.11 ± 0.87 L and the FEV1 5 h after inhalation was found to be 4.1 ± 0.87 L. The “No measurements (ppb) 15 min after inhalation” value (shortened to “No measurements (ppb) 15 min”) under setting [2] amounted to 25.16 ± 9.76 ppb. For the same molecule, under setting [3], the “Eosinophils (sputum) 5 h” value is given as 0.00 ± 0.00%, the FEV1 15 min after inhalation came to 4.08 ± 0.87 L, the FEV1 1 h after inhalation was found to be 4.11 ± 0.83 L and the FEV1 3 h after inhalation was 4.1 ± 0.82 L. This molecule returned an FEV1 5 h after inhalation under setting [3] of 4.11 ± 0.87 L. Also, where the note is “single dose, HPBCD 2.5 mM, mean ± SD, n = 8”, the “No measurements (ppb) 15 min” value is 23.85 ± 7.56 ppb. In addition, under setting [4], the “Eosinophils (sputum) 5 h” value is 0.20 ± 0.49%, the FEV1 15 min after inhalation was determined as 4.01 ± 0.87 L, the FEV1 1 h after inhalation was determined as 4.04 ± 0.86 L and the FEV1 3 h after inhalation is 4.07 ± 0.85 L. Under setting [4], the FEV1 5 h after inhalation came to 4.08 ± 0.92 L. Also, where the note is “single dose, HPBCD 15 mM, mean ± SD, n = 8”, the “No measurements (ppb) 15 min” value amounted to 28.48 ± 17.92 ppb.
